Experimental data from publication PMC5601625, “Defining a therapeutic window for kinase inhibitors in leukemia to avoid neutropenia” (Oncotarget, 2017).
“Also recorded” adds a separate entry of the source. Where two headings read alike, the source gives them in different places.

Legend:
[1] = tested on: primary murine bone-marrow neutrophils; assay: Live cell imaging viability of primary bone-marrow neutrophils; conditions: for effect on mouse neutrophil viability (words): G-CSF- or GM-CSF-primed, inhibitors at 1 μM, over 24 hours
Source text: Using a high-throughput live cell imaging approach reported previously [15], we examined the effect of the kinase inhibitors on the viability of bone marrow neutrophils to determine their potential to cause neutropenia (Figure 2). Because G-CSF and GM-CSF are dominant regulators of granulopoiesis and neutrophil survival, and are commonly used in a clinical setting to mobilize hematopoietic stem cells into the blood and increase neutrophil production [27–31], we treated cells with these cytokines immediately prior to drug exposure. The addition of either cytokine prevents constitutive neutrophil apoptosis thereby increasing the window for detection of changes in viability induced by drug treatments.
For all above, data represent mean ± SEM from three independent samples.
Mouse bone marrow neutrophils were prepared as described [15]. Neutrophils were resuspended in phenol red-free DMEM/10% FBS for imaging studies. The purity of neutrophil preparations was routinely 96% ± 4% (Mean ± SD, n = 50) as assessed by cytology following May-Grünwald/Giemsa staining.
Kinase inhibitors were purchased from SYN kinase (Melbourne, Australia) and were used at 1 μM, unless otherwise specified, with dilutions performed in assay buffer containing 0.1% DMSO.
Viability was monitored using 2 μg/mL PI (Sigma). Images were captured every 30-60 min by the Zeiss Axiovert 200M Microscope at 37 °C/10% CO2. Quantitative analysis was performed using a custom-scripted MetaMorph (Molecular Devices) journal suite incorporating the count nuclei function, reconstruction & subtraction functions and Integrated Morphometry Analysis to select and analyze cells of interest.

[2] = tested on: human peripheral blood neutrophils; assay: Human neutrophil viability by propidium iodide exclusion, flow cytometry; conditions: for sensitivity of human neutrophils at 1μM: 18 h; for sensitivity of human neutrophils: G-CSF or GM-CSF primed 1 h, treated 18 h, dose range
Experimental: Figure 3 Assessment of human neutrophil viability in response to kinase inhibitor treatment Human peripheral blood neutrophils from three healthy donors were primed with G-CSF or GM-CSF for 1 hour before addition of selected kinase inhibitors (as shown) or DMSO (control) at concentrations as indicated. Neutrophil viability was assessed after 18 hours of treatment, by propidium iodide exclusion measured by flow cytometry. Mean ± SEM shown.
Donors were 18 years of age or older and had not taken anti-inflammatory medications during the 2 weeks before donating. […] Human neutrophils were then isolated on a three-layer Percoll gradient as described for mouse bone marrow neutrophils as described. […] Neutrophils were resuspended in DMEM/10%FBS, and primed with 10 ng/mL recombinant human G-CSF (Amgen) or 10 ng/mL recombinant human GM-CSF (Leukine, Sargramostim) for 1 h. Compounds or DMSO carrier were added for […]. Viability was assessed by staining neutrophils with propidium iodide and analyzing on a BD Fortessa.

[3] = tested on: panel of human leukemia cell lines; assay: Cell Titer Glo cell viability assay, 48 h, statements across the whole panel; conditions: for cytotoxicity to leukemia cell lines: 12 leukemia cell lines; for IC50: Homo sapiens
Experimental: (§1) The activity of the kinase inhibitor collection against a panel of human leukemia cell lines was determined in cell viability assays run over 48 h using the Cell Titer Glo reagent.
Figure 1 Effects of kinase inhibition on the proliferation of leukemia cells A. Human leukemia cell lines were treated with duplicate serial dilutions of kinase inhibitors and the effect on cell viability was determined by Cell Titer Glo assay after 48 hours. Data shown represents the mean IC50 of each condition from 2 independent experiments. HL-60 cells were treated with serial dilutions of mTor/PI3K B. and MEK C. inhibitors and the effect on cell viability was determined after 48 hours. Data shown is the mean ± SEM of 3 independent experiments.
(§2) Leukemia and lymphoma cell lines were grown in RPMI containing 10% FCS. […] Cell lines are routinely tested for mycoplasma and genotyped by short tandem repeating (STR) profiling to confirm identity.
(§3) Compounds were obtained from SynMedChem and dissolved at […] in DMSO. Serial 2-fold dilutions of each compound were prepared in DMSO using a liquid handling robot (Janus, Perkin Elmer). Each dilution (100nL) was transferred to duplicate tissue culture plates containing 50 μL of media containing 5 × 10^3 cells using a 384 well pin tool. Cells were incubated for 48 h and cell viability was determined using Cell Titer Glow reagents as described by the manufacturer (Promega). Data was acquired using a luminescent plate reader (Envision, Perkin Elmer) and analysed using Activity Base (IDBS, Guilford, UK) and visualised using Spotfire (TIBCO, Palo Alto, CA) as described previously. Each cell line was assayed in independent experiments on at least two occasions. […] Serial 2-fold dilutions of each compound were prepared in media containing 0.2% DMSO and 50 μl of each dilution was added to 10^4 cells in 50 μl of media. Cells were incubated for 48 h and cell viability was determined using Cell Titer Glow assay as described above.

[4] = tested on: HEL.92.1.7; assay: Cell Titer Glo cell viability assay, 48 h; format: cell-based, human; conditions: Homo sapiens; 48 h; mean of 2 independent experiments; 0 = less than 10 nM, cell line not given; read-out: IC50 of inhibitors on cell lines, m (mean)
Experimental: as §1
(§4) Figure 1 Effects of kinase inhibition on the proliferation of leukemia cells A. Human leukemia cell lines were treated with duplicate serial dilutions of kinase inhibitors and the effect on cell viability was determined by Cell Titer Glo assay after 48 hours. […] HL-60 cells were treated with serial dilutions of mTor/PI3K B. and MEK C. inhibitors and the effect on cell viability was determined after 48 hours. Data shown is the mean ± SEM of 3 independent experiments.
as §2, §3

[5] = tested on: MEG-01; assay: Cell Titer Glo cell viability assay, 48 h; format: cell-based, human; conditions: Homo sapiens; 48 h; mean of 2 independent experiments; 0 = less than 10 nM, cell line not given; read-out: IC50 of inhibitors on cell lines, m (mean)
Experimental: as §1, §4, §2, §3

[6] = tested on: U937; assay: Cell Titer Glo cell viability assay, 48 h; format: cell-based, human; conditions: Homo sapiens, U-937; 48 h; mean of 2 independent experiments; 0 = less than 10 nM, cell line not given; read-out: IC50 of inhibitors on cell lines, m (mean)
Experimental: as §1, §4, §2, §3

[7] = tested on: KU-812; assay: Cell Titer Glo cell viability assay, 48 h; format: cell-based, human; conditions: Homo sapiens, KU812; 48 h; mean of 2 independent experiments; 0 = less than 10 nM, cell line not given; read-out: IC50 of inhibitors on cell lines, m (mean)
Experimental: as §1, §4, §2, §3

[8] = tested on: EOL-1; assay: Cell Titer Glo cell viability assay, 48 h; format: cell-based, human; conditions: Homo sapiens, EOL1; 48 h; mean of 2 independent experiments; 0 = less than 10 nM, cell line not given; read-out: IC50 of inhibitors on cell lines, m (mean)
Experimental: as §1, §4, §2, §3

[9] = tested on: MV4;11; assay: Cell Titer Glo cell viability assay, 48 h; format: cell-based, human; conditions: Homo sapiens; 48 h; mean of 2 independent experiments; 0 = less than 10 nM, cell line not given; read-out: IC50 of inhibitors on cell lines, m (mean)
Experimental: as §1, §4, §2, §3

[10] = tested on: MOLT4; assay: Cell Titer Glo cell viability assay, 48 h; format: cell-based, human; conditions: Homo sapiens, MOLT-4; 48 h; mean of 2 independent experiments; 0 = less than 10 nM, cell line not given; read-out: IC50 of inhibitors on cell lines, m (mean)
Experimental: as §1, §4, §2, §3

[11] = tested on: OCI-AML3; assay: Cell Titer Glo cell viability assay, 48 h; format: cell-based, human; conditions: Homo sapiens, OCI-AML-3; 48 h; mean of 2 independent experiments; 0 = less than 10 nM, cell line not given; read-out: IC50 of inhibitors on cell lines, m (mean)
Experimental: as §1, §4, §2, §3

[12] = tested on: HL-60; assay: Cell Titer Glo cell viability assay, 48 h; format: cell-based, human; conditions: Homo sapiens; 48 h; mean of 2 independent experiments; 0 = less than 10 nM, cell line not given; read-out: IC50 of inhibitors on cell lines, m (mean)
Experimental: as §1, §4, §2, §3

[13] = tested on: JURKAT; assay: Cell Titer Glo cell viability assay, 48 h; format: cell-based, human; conditions: Homo sapiens; 48 h; mean of 2 independent experiments; 0 = less than 10 nM, cell line not given; read-out: IC50 of inhibitors on cell lines, m (mean)
Experimental: as §1, §4, §2, §3

[14] = tested on: THP-1; assay: Cell Titer Glo cell viability assay, 48 h; format: cell-based, human; conditions: Homo sapiens; 48 h; mean of 2 independent experiments; 0 = less than 10 nM, cell line not given; read-out: IC50 of inhibitors on cell lines, m (mean)
Experimental: as §1, §4, §2, §3

[15] = tested on: K562; assay: Cell Titer Glo cell viability assay, 48 h; format: cell-based, human; conditions: Homo sapiens; 48 h; mean of 2 independent experiments; 0 = less than 10 nM, cell line not given; read-out: IC50 of inhibitors on cell lines, m (mean)
Experimental: as §1, §4, §2, §3

[16] = read-out: IC50 across most of the cell lines examined

Compound: Cc1cc(Nc2nc(N[C@@H](C)c3ccc(F)cc3)c(C#N)cc2F)n[nH]1 [AZ-960]
- effect on mouse neutrophil viability (words) [1]: significantly affected neutrophil viability

Compound: Cn1c(=O)n(-c2ccc(C(C)(C)C#N)cc2)c2c3cc(-c4cnc5ccccc5c4)ccc3ncc21 [BEZ-235]
- sensitivity of human neutrophils at 1μM [2]: not sensitive
- sensitivity of human neutrophils [2]: sensitive
- cytotoxicity to leukemia cell lines [3]: potently cytotoxic to all lines examined
- IC50 [3, 16]: ≤ 0.01 µM
- effect on mouse neutrophil viability (words) [1]: minimal impact

Compound: O=C(Nc1c[nH]nc1-c1nc2cc(CN3CCOCC3)ccc2[nH]1)NC1CC1 [AT9283]
- effect on mouse neutrophil viability (words) [1]: significantly affected neutrophil viability
- effect on mouse neutrophil viability (words) ([1]; listed as AT-9283): cytotoxicity

Compound: Cc1cc(Nc2nc(N[C@@H](C)c3ncc(F)cn3)ncc2Cl)n[nH]1 [AZD1480]
- effect on mouse neutrophil viability (words) [1]: significantly affected neutrophil viability
- effect on mouse neutrophil viability (words) ([1]; listed as AZD-1480): cytotoxicity

Compound: CN(C)CC[C@H](CSc1ccccc1)Nc1ccc(S(=O)(=O)NC(=O)c2ccc(N3CCN(Cc4ccccc4-c4ccc(Cl)cc4)CC3)cc2)cc1[N+](=O)[O-] [ABT-737]
- effect on mouse neutrophil viability (words) [1]: no impact on mouse neutrophil viability; also recorded: minimal effects on neutrophils

Compound: CC[C@@H]1C(=O)N(C)c2cnc(Nc3ccc(C(=O)NC4CCN(C)CC4)cc3OC)nc2N1C1CCCC1 [(R)-BI-2536]
- sensitivity of human neutrophils at 1μM [2]: not sensitive
- sensitivity of human neutrophils [2]: sensitive
- cytotoxicity to leukemia cell lines [3]: potently cytotoxic to all lines examined
- IC50 ([3]; read-out: IC50 across all cell lines examined): < 0.3 µM
- IC50 [3, 16]: ≤ 0.01 µM

Compound: N#CCNC(=O)c1ccc(-c2ccnc(Nc3ccc(N4CCOCC4)cc3)n2)cc1 [CYT387]
- effect on mouse neutrophil viability (words) [1]: did not

Compound: C[C@@H]1CCN(C(=O)CC#N)C[C@@H]1N(C)c1ncnc2[nH]ccc12 [CP690550]
- effect on mouse neutrophil viability (words) [1]: did not

Compound: NC(=O)Nc1cc(-c2cccc(F)c2)sc1C(=O)N[C@H]1CCCNC1 [AZD7762]
- sensitivity of human neutrophils at 1μM [2]: not sensitive
- sensitivity of human neutrophils [2]: sensitive
- cytotoxicity to leukemia cell lines [3]: potently cytotoxic to all lines examined
- IC50 [3, 16]: ≤ 0.01 µM

Compound: CN1CC[C@H](c2c(O)cc(O)c3c(=O)cc(-c4ccccc4Cl)oc23)[C@H](O)C1 [Flavopiridol]
- effect on mouse neutrophil viability (words) [1]: induced rapid cell death
- effect on mouse neutrophil viability (words) ([1]; listed as flavopiridol): significant impact on neutrophil viability

Compound: CCc1c2c(nc3ccc(O)cc13)-c1cc3c(c(=O)n1C2)COC(=O)[C@]3(O)CC [SN-38]
- effect of chemotherapeutics on neutrophil viability ([1]; GM-CSF-primed, dose-dependent, Figure 5D): potently decreased neutrophil viability

Compound: Cc1cnc(Nc2ccc(OCCN3CCCC3)cc2)nc1Nc1cccc(S(=O)(=O)NC(C)(C)C)c1 [TG-101348]
- effect on mouse neutrophil viability (words) [1]: cytotoxicity

Compound: Oc1cccc(-c2nc(N3CCOCC3)c3oc4ncccc4c3n2)c1 [PI103]
- effect on mouse neutrophil viability (words) [1]: some neutrophil toxicity
- IC50 [4]: 1.89 µM
- IC50 [5]: 1.52 µM
- IC50 [6]: 0.26 µM
- IC50 [7]: 3.35 µM
- IC50 [8]: 0.22 µM
- IC50 [9]: 0.2 µM
- IC50 [10]: 0.21 µM
- IC50 [11]: 0.16 µM
- IC50 [12]: 0.29 µM
- IC50 [13]: 0.96 µM
- IC50 [14]: 0.88 µM
- IC50 [15]: 2.29 µM

Compound: Cc1[nH]c(/C=C2\C(=O)Nc3ccccc32)c(C)c1CCC(=O)O [SU-6668]
- IC50 [4]: > 10 µM
- IC50 [5]: > 10 µM
- IC50 [6]: > 10 µM
- IC50 [7]: > 10 µM
- IC50 [8]: 0.84 µM
- IC50 [9]: 5.11 µM
- IC50 [10]: > 10 µM
- IC50 [11]: > 10 µM
- IC50 [12]: > 10 µM
- IC50 [13]: > 10 µM
- IC50 [14]: > 10 µM
- IC50 [15]: 8.11 µM

Compound: Cc1cc(Nc2cc(N3CCN(C)CC3)nc(Sc3ccc(NC(=O)C4CC4)cc3)n2)[nH]n1 [VX-680]
- IC50 [4]: 7.99 µM
- IC50 [5]: 0.53 µM
- IC50 [6]: 5.46 µM
- IC50 [7]: 0.18 µM
- IC50 [8]: 0.07 µM
- IC50 [9]: 0.05 µM
- IC50 [10]: 2.59 µM
- IC50 [11]: 0.8 µM
- IC50 [12]: 2.45 µM
- IC50 [13]: 4.96 µM
- IC50 [14]: 5.75 µM
- IC50 [15]: 0.43 µM

Compound: CN(C)CCOc1cc(-c2cn[nH]c2)ccc1NC(=O)C1COc2ccccc2O1 (stereo not drawn) [SR3677]
- IC50 [4]: > 10 µM
- IC50 [5]: 8.05 µM
- IC50 [6]: 5.96 µM
- IC50 [7]: 1.53 µM
- IC50 [8]: 0.75 µM
- IC50 [9]: 2.64 µM
- IC50 [10]: > 10 µM
- IC50 [11]: > 10 µM
- IC50 [12]: 9.1 µM
- IC50 [13]: > 10 µM
- IC50 [14]: > 10 µM
- IC50 [15]: > 10 µM

Compound: CN(C)C/C=C/C(=O)Nc1cc2c(Nc3ccc(F)c(Cl)c3)ncnc2cc1O[C@H]1CCOC1 [TOVOK]
- IC50 [4]: 1.94 µM
- IC50 [5]: 5.02 µM
- IC50 [6]: 2.06 µM
- IC50 [7]: 2.71 µM
- IC50 [8]: 0.68 µM
- IC50 [9]: 0.44 µM
- IC50 [10]: 2.37 µM
- IC50 [11]: 3.36 µM
- IC50 [12]: 1.8 µM
- IC50 [13]: 2.11 µM
- IC50 [14]: 4.31 µM
- IC50 [15]: 5.72 µM
